Experimental data taken from patent US6727232B2, “Nucleoside peptide antibiotics of AA-896” (Wyeth Holdings Corporation, priority 2001, dated 2004).
Read-outs that look alike come from different tables or passages of the source.

Columns and labels:
Assay in all cases: Broth dilution MIC
Assay type in all cases: cell-based
E. coli GC 4559 = conditions: Escherichia coli, GC4559; E. coli GC 4559; Mueller-Hinton broth, 18 hours at 35° C.; read-out: Antimicrobial Activity (MIC)
Outline: (§1)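 MIC reported as the lowest compound concentration preventing growth after 18 hours of incubation at 35° C., using serial dilutions in Mueller-Hinton broth inoculated with the test strain.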

E. coli GC 3226 = conditions: Escherichia coli, GC3226; E. coli GC 3226; Mueller-Hinton broth, 18 hours at 35° C.; read-out: Antimicrobial Activity (MIC)
Outline: as §1

E. faecalis GC 2242 = conditions: Enterococcus faecalis, GC2242; E. faecalis GC 2242; Mueller-Hinton broth, 18 hours at 35° C.; read-out: Antimicrobial Activity (MIC)
Outline: as §1

P. aeruginosa GC 2214 = conditions: Pseudomonas aeruginosa, GC2214; P. aeruginosa GC 2214; Mueller-Hinton broth, 18 hours at 35° C.; read-out: Antimicrobial Activity (MIC)
Outline: as §1

S. aureus GC 2216 = conditions: Staphylococcus aureus, GC2216; S. aureus GC 2216; Mueller-Hinton broth, 18 hours at 35° C.; read-out: Antimicrobial Activity (MIC)
Outline: as §1

S. marcescens GC 4077 = conditions: Serratia marcescens, GC4077; S. marcescens GC 4077; Mueller-Hinton broth, 18 hours at 35° C.; read-out: Antimicrobial Activity (MIC)
Outline: as §1

E. cloacae GC 3783 = conditions: Enterobacter cloacae, GC3783; E. cloacae GC 3783; Mueller-Hinton broth, 18 hours at 35° C.; read-out: Antimicrobial Activity (MIC)
Outline: as §1

P. aeruginosa GC 4532 = conditions: Pseudomonas aeruginosa, GC4532; P. aeruginosa GC 4532; Mueller-Hinton broth, 18 hours at 35° C.; read-out: Antimicrobial Activity (MIC)
Outline: as §1

S. aureus GC 1131 = conditions: Staphylococcus aureus, GC1131; S. aureus GC 1131; Mueller-Hinton broth, 18 hours at 35° C.; read-out: Antimicrobial Activity (MIC)
Outline: as §1

E. coli GC 2203 = conditions: Escherichia coli, GC2203; E. coli GC 2203; Mueller-Hinton broth, 18 hours at 35° C.; read-out: Antimicrobial Activity (MIC)
Outline: as §1

E. coli GC 4560 = conditions: Escherichia coli, read-out: Antimicrobial Activity (MIC)
Outline: as §1

CNS GC 4547 = conditions: CNS GC 4547; Mueller-Hinton broth, 18 hours at 35° C.; read-out: Antimicrobial Activity (MIC)
Outline: as §1

K. pneumoniae GC 4534 = conditions: Klebsiella pneumoniae, GC4534; K. pneumoniae GC 4534; Mueller-Hinton broth, 18 hours at 35° C.; read-out: Antimicrobial Activity (MIC)
Outline: as §1

E. faecalis GC 842 = conditions: Enterococcus faecalis, GC842; E. faecalis GC 842; Mueller-Hinton broth, 18 hours at 35° C.; read-out: Antimicrobial Activity (MIC)
Outline: as §1

CNS GC 4538 = conditions: CNS GC 4538; Mueller-Hinton broth, 18 hours at 35° C.; read-out: Antimicrobial Activity (MIC)
Outline: as §1

M. morganii GC 4531 = conditions: Morganella morganii, GC4531; M. morganii GC 4531; Mueller-Hinton broth, 18 hours at 35° C.; read-out: Antimicrobial Activity (MIC)
Outline: as §1

S. aureus GC 4536 = conditions: Staphylococcus aureus, GC4536; S. aureus GC 4536; Mueller-Hinton broth, 18 hours at 35° C.; read-out: Antimicrobial Activity (MIC)
Outline: as §1

P. rettgeri GC 4530 = conditions: Providencia rettgeri, GC4530; P. rettgeri GC 4530; Mueller-Hinton broth, 18 hours at 35° C.; read-out: Antimicrobial Activity (MIC)
Outline: as §1

CNS GC 4537 = conditions: CNS GC 4537; Mueller-Hinton broth, 18 hours at 35° C.; read-out: Antimicrobial Activity (MIC)
Outline: as §1

E. faecalis GC 4555 = conditions: Enterococcus faecalis, GC4555; E. faecalis GC 4555; Mueller-Hinton broth, 18 hours at 35° C.; read-out: Antimicrobial Activity (MIC)
Outline: as §1

Measured: MIC

CCCCCCCCCCCCNC(=O)NC[C@H]1OC(O[C@H](C2C(=O)N(CCCCCCCCCCCC)C(=O)N2CCCNC(=O)C(NC(=O)C(NC(=O)NC(C(=O)O)C(C)C)C2CCNC(=N)N2)C(O)C(C)C)[C@H]2O[C@@H](n3ccc(=O)[nH]c3=O)[C@H](O)[C@@H]2O)[C@H](OC)[C@H]1O (stereo partly drawn) [Example 15, 14-[5-((R)-{(2S,3S,4R,5R)-5-[2,4-Dioxo-3,4-dihydro-1 (2H)-pyrimidinyl]-3,4-dihydroxytetrahydro-2-furanyl}{[(3R,4S,5R)-5-({[(dodecylamino)carbonyl]amino}methyl)-4-hydroxy-3-methoxytetrahydro-2-furanyl]oxy}methyl)-3-dodecyl-2,4-dioxo-1-imidazolidinyl]-9-(1-hydroxy-2-methylpropyl)-6-(2-iminohexahydro-4-pyrimidinyl)-2-isopropyl-4,7,10-trioxo-3,5,8,11-tetraazatetradecan-1-oic Acid]
> 32 µg/mL: E. coli GC 4559 | E. coli GC 3226 | E. faecalis GC 2242 | P. aeruginosa GC 2214 | S. aureus GC 2216 | S. marcescens GC 4077 | E. cloacae GC 3783 | P. aeruginosa GC 4532 | S. aureus GC 1131 | E. coli GC 2203 | E. coli GC 4560; GC4560, E. coli GC 4560, Mueller-Hinton broth, 18 hours at 35° C. | CNS GC 4547 | K. pneumoniae GC 4534 | E. faecalis GC 842 | CNS GC 4538 | M. morganii GC 4531 | S. aureus GC 4536 | P. rettgeri GC 4530 | CNS GC 4537 | E. faecalis GC 4555

CCCCCCCCCCCCCCCCNC(=O)NC[C@H]1OC(O[C@H](C(NCCCNC(=O)C(NC(=O)C(NC(=O)NC(C(=O)O)C(C)C)C2CCNC(=N)N2)C(O)C(C)C)C(=O)O)[C@H]2O[C@@H](n3ccc(=O)[nH]c3=O)[C@H](O)[C@@H]2O)[C@H](OC)[C@H]1O (stereo partly drawn) [Example 16, 16-((R)-{(2S,3S,4R,5R)-5-[2,4-Dioxo-3,4-dihydro-1 (2H)-pyrimidinyl]-3,4-dihydroxytetrahydro-2-furanyl}{[(3R,4S,5R)-5-({[(hexadecylamino)carbonyl]amino}methyl)-4-hydroxy-3-methoxytetrahydro-2-furanyl]oxy}methyl)-9-(1-hydroxy-2-methylpropyl)-6-(2-iminohexahydro-4-pyrimidinyl)-2-isopropyl-4,7,10-trioxo-3,5,8,11,15-pentaazaheptadecane-1,17-dioic Acid]
> 32 µg/mL: E. coli GC 4559 | E. coli GC 3226 | E. faecalis GC 2242 | P. aeruginosa GC 2214 | S. aureus GC 2216 | S. marcescens GC 4077 | E. cloacae GC 3783 | P. aeruginosa GC 4532 | S. aureus GC 1131 | E. coli GC 2203 | E. coli GC 4560; GC4560, 18 h | CNS GC 4547 | K. pneumoniae GC 4534 | E. faecalis GC 842 | CNS GC 4538 | M. morganii GC 4531 | S. aureus GC 4536 | P. rettgeri GC 4530 | CNS GC 4537 | E. faecalis GC 4555

CCCCCNC[C@H]1OC(O[C@H](C(C(=O)O)N(CCCCC)CCCNC(=O)C(NC(=O)C(NC(=O)NC(C(=O)O)C(C)C)C2CCNC(=N)N2)C(O)C(C)C)[C@H]2O[C@@H](n3ccc(=O)[nH]c3=O)[C@H](O)[C@@H]2O)[C@H](OC)[C@H]1O (stereo partly drawn) [Example 17, 16-[(R)-{(2S,3S,4R,5R)-5-[2,4-Dioxo-3,4-dihydro-1 (2H)-pyrimidinyl]-3,4-dihydroxytetrahydro-2-furanyl}({(3R,4S,5R)-4-hydroxy-3-methoxy-5-[(pentylamino)methyl]tetrahydro-2-furanyl}oxy)methyl]-9-(1-hydroxy-2-methylpropyl)-6-(2-iminohexahydro-4-pyrimidinyl)-2-isopropyl-4,7,10-trioxo-15-pentyl-3,5,8,11,15-pentaazaheptadecane-1,17-dioic Acid]
32 µg/mL: E. faecalis GC 2242 | E. coli GC 4560; GC4560, 18 h | CNS GC 4547
> 32 µg/mL: E. coli GC 4559 | E. coli GC 3226 | P. aeruginosa GC 2214 | S. aureus GC 2216 | S. marcescens GC 4077 | E. cloacae GC 3783 | P. aeruginosa GC 4532 | S. aureus GC 1131 | E. coli GC 2203 | K. pneumoniae GC 4534 | E. faecalis GC 842 | CNS GC 4538 | M. morganii GC 4531 | S. aureus GC 4536 | P. rettgeri GC 4530 | CNS GC 4537 | E. faecalis GC 4555

CCCCCNC[C@H]1OC(O[C@H](C(NCCCNC(=O)C(NC(=O)C(NC(=O)NC(C(=O)O)C(C)C)C2CCNC(=N)N2)C(O)C(C)C)C(=O)O)[C@H]2O[C@@H](n3ccc(=O)[nH]c3=O)[C@H](O)[C@@H]2O)[C@H](OC)[C@H]1O (stereo partly drawn) [Example 18, 16-[(R)-{(2S,3S,4R,5R)-5-[2,4-Dioxo-3,4-dihydro-1 (2H)-pyrimidinyl]-3,4-dihydroxytetrahydro-2-furanyl}({(3R,4S,5R)-4-hydroxy-3-methoxy-5-[(pentylamino)methyl]tetrahydro-2-furanyl}oxy)methyl]-9-(1-hydroxy-2-methylpropyl)-6-(2-iminohexahydro-4-pyrimidinyl)-2-isopropyl-4,7,10-trioxo-3,5,8,11,15-pentaazaheptadecane-1,17-dioic Acid]
> 32 µg/mL: E. coli GC 4559 | E. coli GC 3226 | E. faecalis GC 2242 | P. aeruginosa GC 2214 | S. aureus GC 2216 | S. marcescens GC 4077 | E. cloacae GC 3783 | P. aeruginosa GC 4532 | S. aureus GC 1131 | E. coli GC 2203 | E. coli GC 4560; GC4560, 18 h | CNS GC 4547 | K. pneumoniae GC 4534 | E. faecalis GC 842 | CNS GC 4538 | M. morganii GC 4531 | S. aureus GC 4536 | P. rettgeri GC 4530 | CNS GC 4537 | E. faecalis GC 4555

CO[C@H]1C(O[C@H](C(NCCCNC(=O)C(NC(=O)C(NC(=O)NC(C(=O)O)C(C)C)C2CCNC(=N)N2)C(O)C(C)C)C(=O)O)[C@H]2O[C@@H](n3ccc(=O)[nH]c3=O)[C@H](O)[C@@H]2O)O[C@H](CNCc2ccc(-c3ccccc3)cc2)[C@@H]1O (stereo partly drawn) [Example 19A, 16-((R)-[((3R,4S,5R)-5-{[([1,1′-Biphenyl]-4-ylmethyl)amino]methyl}-4-hydroxy-3-methoxytetrahydro-2-furanyl)oxy]{(2S,3S,4R,5R)-5-[2,4-dioxo-3,4-dihydro-1 (2H)-pyrimidinyl]-3,4-dihydroxytetrahydro-2-furanyl}methyl)-9-(1-hydroxy-2-methylpropyl)-6-(2-iminohexahydro-4-pyrimidinyl)-2-isopropyl-4,7,10-trioxo-3,5,8,11,15-pentaazaheptadecane-1,17-dioic Acid]
16 µg/mL: E. coli GC 4560; GC4560, 18 h
> 32 µg/mL: E. coli GC 4559 | E. coli GC 3226 | E. faecalis GC 2242 | P. aeruginosa GC 2214 | S. aureus GC 2216 | S. marcescens GC 4077 | E. cloacae GC 3783 | P. aeruginosa GC 4532 | S. aureus GC 1131 | E. coli GC 2203 | CNS GC 4547 | K. pneumoniae GC 4534 | E. faecalis GC 842 | CNS GC 4538 | M. morganii GC 4531 | S. aureus GC 4536 | P. rettgeri GC 4530 | CNS GC 4537 | E. faecalis GC 4555
